Test results from US20060160869A1, “Ubiquitin ligase inhibitors” (Rigel Pharmaceuticals, Inc., priority 2005, published 2006).
Read-outs that look alike come from different tables or passages of the source.

Columns and labels:
[1] = system: H1299 cells; assay: PAD anti-proliferation assay, H1299; assay type: cell-based; details: Homo sapiens, NCI-H1299, 48 hours
Experimental: A549 (ATCC# CCL 185), HeLa (ATCC# CCL 2), HCT116 (ATCC# CCL-247), and H 1299 (ATCC# CRL-5803) cells were maintained in T175 flasks following the ATCC recommended media and handling procedures. Flasks reaching approximately 70% confluency were trypsinized and resuspended in RPMI media (Cell Gro catalog number 10 040 CM) modified to contain 5% FBS, 100 ug/mlPen/Strep (Cell Gro catalog number 30 002 CL), and 0.3 mg/ml L Glutamine (Cell Gro catalog number 25 003 CL). A 20,000 cells/ml solution was made for plating. Cells were plated in black Packard 96 well plates by placing 100 μl per well (2,000 cells per well).
Compounds and additional media were added 24′ hours after cell plating. A compound master plate was created with concentrations 500 times greater than the final concentration added to the cells. All compound testing was done in duplicate using 3 fold dilutions starting with 10 mM. All outside wells (and 4 internal wells) were DMSO controls. Taxol and at least one additional control were run on all plates. Three microliters of the compound master plate were added to deep well blocks containing 750 μl of RPMI media. One hundred microliters were transferred from the compound/media deep well blocks to the plated cells resulting in a 500 fold dilution of the compounds. Cells were grown at 37° C., 5% CO2 for 48 hours.
Cells to be analyzed by photography were fixed and stained. One hundred microliters of media were removed and 100 μl of 2% paraformaldehyde was added to each well. Plates were left on the benchtop for 45 minutes. A staining solution containing 1.55 μl of 1 mg/ml DAPI added to 18.75 ml PBS was warmed for 15 minutes at 37° C. The cells were aspirated prior to washing with 100 μl of PBS. Seventy microliters of PBS were aspirated and 170 μl of the DAPI solution were added to each well of fixed cells. Plates were left at room temperature for one hour then aspirated and washed twice with 100 μl of PBS. The stained cells were left at 4° C. for a minimum of 16 hours before photographic analysis with Array Scan II (Cellomics). Analysis of the photographic images to determine numbers of live cells (proliferation), apoptotic cells and dead cells, were according to the methods described in U.S. Provisional Patent Application Ser. No. 60/406,714, which incorporated herein in its entirety.

[2] = biological target: MDM2 (Homo sapiens, UniProt Q00987); assay: Plate-based E3 ligase assay, MDM2 autoubiquitination (MDM2-FLAG); assay type: biochemical
Experimental: (§1) E3 (His-APC11/APC2—“APC”) auto-ubiquitination was measured as described in U.S. patent application Ser. No. 09/826,312 (Publication No. US-2002-0042083-A1), which is incorporated herein in its entirety. Details of the protocol are described below. Activity in the presence of the compound was determined relative to a parallel control in which only DMSO was added. Values of the IC50 were typically determined using 6 or 8 different concentrations of the compound, although as few as 2 concentrations may be used to approximate the IC50 value.
(§2) Nickel-coated 96-well plates (Pierce 15242) were blocked for 1 hour with 100 μl of blocking buffer at room temperature. The plates were washed 4 times with 225 μl of 1×PBS and 80 μl of the reaction buffer were added that contained 100 ng/well of Flag-ubiquitin. To this, 10 μl of the test compound diluted in DMSO were added. After the test compound was added, 10 μl of E1 (human), E2 (Ubch5c), and APC in Protein Buffer was added to obtain a final concentration of 5 ng/well of E1, 20 ng/well: of E2 and 100 ng/well of APC. The plate were shaken for 10 minutes and incubated at room temperature for 1 hour. After incubation, the plates were washed 4 times with 225 μl of 1×PBS and 100 μl/well of Antibody Mix were added to each well. The plates were incubate at room temperature for another hour after which they were washed 4 times with 225 μl of 1×PBS and 100 μl/well of Lumino substrate were added to each well. The luminescence was measured by using a BMG luminescence microplate reader.
In similar manner, autoubiquitination of the E3 MDM2 was determined (MDM2-FLAG). Further instruction in such assays can be found in U.S. patent application Ser. No. 10/108,767 (Publication No. US-2003-0104474 A1), which is incorporated herein in its entirety.
hMDM2 Plate/Gel is Mouse double minute 2, human homolog. This protein belongs to the E3 RING finger ligase group.

[3] = biological target: E3 (His-APC11/APC2, "APC") (Homo sapiens, UniProt Q9NYG5+Q9UJX6); assay: Plate-based E3 ligase assay (APC FLAG), auto-ubiquitination; assay type: biochemical
Experimental: as §1, §2
APC Plate/gel is Anaphase Promoting Complex. This protein also belongs to E3 RING finger ligase group.

[4] = system: p53 reporter system in p53 wild-type A549 cell line; assay: p53-dependent transcription reporter assay, A549RE; assay type: cell-based; details: p53 +ve cell type; maximal fold induction over DMSO control
Experimental: Stable lines of U2OS (osteosarcoma; Wild-type p53 positive), HCT116 (colorectal carcinoma; Wild-type p53 positive) and H1299 (lung non-small cell carcinoma; p53 null) carrying p53-dependent transcriptional regulatory element linked to a Luciferase reporter gene and H1299 carrying a 5′-regulatory region of GADD45 linked to Luciferase were used.
Day 2: The compounds or control drugs were diluted in dimethyl sulfoxide (DMSO) and added to the wells to create 6-points/2-fold serial dilution (20, 10, 5, 2.5, 1.25, 0.625 and 0 μM) for each compound. The DMSO concentration was adjusted to 0.2% in all wells.
Day 3: Twenty to 24 hours after compound addition, cells were twice washed with PBS and lysed with Glo-lysis buffer (100 μl/well, Promega; Cat#E2661). Plates were subjected to gentle agitation on a table-top shaker for 5 minutes at room temperature. Fifty μl of lysate was transferred to an assay plate to test for luciferase activity and mixed with 2× assay buffer (Promega; Cat# E1483). The reaction mixture was left at room temperature for 2 minutes and then luminescence was measure by a luminometer (Victor™, 1420 Multilabel Counter, Wallac).
Data analysis was done on Excel software (Microsoft). Values in Table 4 represent maximal fold induction over negative control (DMSO only) and are the mean of at least duplicate experiments.
A549RE is a p53 wild-type A549 cell line containing p53 reporter system. If the compound acts against MDM2, p53 activity increases.

[5] = Table 3, read-out: MDM2 Plate IC50
[6] = Table 3, read-out: APC Plate IC50

MDM2, sequence (Q00987 whole entry): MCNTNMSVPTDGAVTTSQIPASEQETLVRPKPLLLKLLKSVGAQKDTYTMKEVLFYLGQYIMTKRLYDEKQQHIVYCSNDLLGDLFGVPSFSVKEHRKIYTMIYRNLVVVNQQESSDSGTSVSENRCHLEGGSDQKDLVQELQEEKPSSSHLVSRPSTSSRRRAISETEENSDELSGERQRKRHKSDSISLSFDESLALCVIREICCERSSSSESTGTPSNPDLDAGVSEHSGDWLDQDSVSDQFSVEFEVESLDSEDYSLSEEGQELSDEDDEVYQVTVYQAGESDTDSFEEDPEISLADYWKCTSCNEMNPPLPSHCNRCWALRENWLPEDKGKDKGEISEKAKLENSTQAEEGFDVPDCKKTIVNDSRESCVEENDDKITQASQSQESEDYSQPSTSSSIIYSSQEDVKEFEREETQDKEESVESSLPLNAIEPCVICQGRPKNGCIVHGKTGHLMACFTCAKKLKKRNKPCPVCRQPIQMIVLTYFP
E3 (His-APC11/APC2, "APC"), sequence (Q9NYG5 whole entry): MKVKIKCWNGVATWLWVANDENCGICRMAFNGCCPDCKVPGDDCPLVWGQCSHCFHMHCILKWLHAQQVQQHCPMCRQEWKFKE
E3 (His-APC11/APC2, "APC"), sequence (Q9UJX6 whole entry): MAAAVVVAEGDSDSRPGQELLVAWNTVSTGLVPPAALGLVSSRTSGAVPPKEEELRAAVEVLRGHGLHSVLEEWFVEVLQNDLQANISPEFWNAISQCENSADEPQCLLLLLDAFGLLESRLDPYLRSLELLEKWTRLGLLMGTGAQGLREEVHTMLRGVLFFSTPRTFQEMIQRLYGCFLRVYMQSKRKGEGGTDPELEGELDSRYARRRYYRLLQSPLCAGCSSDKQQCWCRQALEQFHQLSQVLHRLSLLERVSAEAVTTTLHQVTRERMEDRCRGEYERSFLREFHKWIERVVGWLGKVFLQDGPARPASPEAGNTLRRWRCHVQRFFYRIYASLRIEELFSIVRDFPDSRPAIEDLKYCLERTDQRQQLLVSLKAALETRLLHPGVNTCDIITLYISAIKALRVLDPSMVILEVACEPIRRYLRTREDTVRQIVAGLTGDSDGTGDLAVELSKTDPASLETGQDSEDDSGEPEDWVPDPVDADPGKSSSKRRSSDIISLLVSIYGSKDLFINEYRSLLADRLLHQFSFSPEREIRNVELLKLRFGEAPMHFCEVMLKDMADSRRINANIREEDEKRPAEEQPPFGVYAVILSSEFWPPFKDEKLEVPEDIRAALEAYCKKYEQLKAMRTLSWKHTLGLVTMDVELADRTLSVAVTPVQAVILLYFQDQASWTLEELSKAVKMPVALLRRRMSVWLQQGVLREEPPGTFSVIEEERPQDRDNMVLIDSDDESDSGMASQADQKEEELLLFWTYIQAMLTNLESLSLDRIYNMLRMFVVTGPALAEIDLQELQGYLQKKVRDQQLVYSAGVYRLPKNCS

Row | SMILES | IC50 [1] | IC50 ([2]; Table 2, read-out: MDM2 IC50) | IC50 [2, 5] | IC50 ([3]; Table 2, read-out: APC IC50) | IC50 [3, 6] | Fold Induction of p53 activity, A549RE [4]
1 | COc1cccc(-c2csc(N(Cc3ccc(C(=O)N4CCNCC4)cc3)Cc3cccc(OC(F)(F)F)c3)n2)c1 [compound 351] | 1 to 20 µM | 1 to 20 µM | 1 to 20 µM | 1 to 20 µM | 1 to 20 µM | a (a means 2 or less)
2 | COc1cccc(-c2csc(N(CCOc3ccccc3)Cc3ccc(C(=O)N4CCNCC4)cc3)n2)c1 [compound 352] | 1 to 20 µM | 1 to 20 µM | 1 to 20 µM | 1 to 20 µM | ≥ 20 µM | a (a means 2 or less)
3 | COc1cccc(CN(Cc2ccc(C(=O)N3CCNCC3)cc2)c2nc(-c3ccc(Br)cc3)cs2)c1OC [compound 353] | 1 to 20 µM | 1 to 20 µM | 1 to 20 µM | 1 to 20 µM | 1 to 20 µM | a (a means 2 or less)

The remaining lines, values ahead:

Row | IC50 [1] | IC50 ([2]; Table 2, read-out: MDM2 IC50) | IC50 [2, 5] | IC50 ([3]; Table 2, read-out: APC IC50) | IC50 [3, 6] | Fold Induction of p53 activity, A549RE [4] | SMILES
4 | 1 to 20 µM | 1 to 20 µM | 1 to 20 µM | 1 to 20 µM | 1 to 20 µM | a (a means 2 or less) | O=C(c1ccc(CN(Cc2cccc(OC(F)(F)F)c2)c2nc(-c3ccccc3)cs2)cc1)N1CCNCC1 [compound 275]
5 | 1 to 20 µM | 1 to 20 µM | 1 to 20 µM | 1 to 20 µM | 1 to 20 µM | a (a means 2 or less) | O=C(c1ccc(CN(Cc2cccc(OC(F)(F)F)c2)c2nc(-c3ccc4ccccc4c3)cs2)cc1)N1CCNCC1 [compound 282, 4-(2-naphthyl)-N-[4-(piperazin-1-ylcarbonyl)benzyl]-N-[3-(trifluoromethoxy)benzyl]-1,3-thiazol-2-amine]
6 | 1 to 20 µM | 1 to 20 µM | < 1 µM | 1 to 20 µM | 1 to 20 µM | a (a means 2 or less) | O=C(c1ccc(CN(CCOc2ccccc2)c2nc(-c3ccc(Cl)c(Cl)c3)cs2)cc1)N1CCNCC1 [compound 360]
